The values below come from ChEMBL document CHEMBL6083206, “SLL-1A-16 suppresses proliferation and induces autophagy in non-small-cell lung cancer cells via the AKT/mTOR signaling pathway” (RSC Med Chem, 2024).

This data set is described as follows: Toxicity in Balb/c nude mouse xenografted with human A549 cells assessed as reduction in body weight at 25 mg/kg, ip administered for 14 days. As to conditions: in vivo, 336 h, time 14 day. The format is organism-based.

For the compound `Cl.Nc1ccn([C@@H]2O[C@H](CO)[C@@H](O)C2(F)F)c(=O)n1` [GEMCITABINE HYDROCHLORIDE], the Activity entry is given as “Toxic”.
